Here are results for seven molecules from patent publication US20250051263A1, “NOVEL IONIZABLE LIPIDS AND LIPID NANOPARTICLES AND METHODS OF USING THE SAME” (Sail Biomedicines, Inc., priority 2021, published 2025).

Several values for one entry are separate records, joined by “and”; a condition that tells them apart may be missing. Identical values can stand only once.

Series [1] can be described thus: LNP size and polydispersity, Zetasizer Ultra. It is filed as physicochemical. An excerpt:
(§1) All other compositions (i.e., compositions of MC3 (a commercially available ionizable lipid having a chemical name of (6Z,9Z,28Z,31Z)-heptatriacont-6,9,28,31-tetraene-19-yl 4-(dimethylamino)butanoate, and compositions of novel ionizable lipids 7669, 7671, 7668, 767, 7650) are composed of ionizable lipid:structural lipid:sterol:PEG-lipid (SDA lipid #:DSPC:cholesterol:14:0 PEG2000 PE) at a molar ratio of […], respectively. Lipids are solubilized in ethanol. Compositions are then handled as above, except the formulations are maintained at ionizable lipid to mRNA N:P ratio of 6:1. The lipid mix and mRNA solution are mixed at a 1:3 ratio by volume, respectively, on a NanoAssemblr Ignite (Precision Nanosystems) at a total flow rate of 9 mL/min. Resulting compositions are then loaded into Slide-A-Lyzer G2 dialysis cassettes (10 k MWCO) and dialyzed in 200 times sample volume of 1×PBS for 4 hrs at room temp with gentle stirring. The PBS is refreshed, and the compositions are further dialyzed for at least 14 hrs at 4° C. with gentle stirring. The dialyzed compositions are then collected and concentrated by centrifugation at 2000×g using Amicon Ultra centrifugation filters (100 k MWCO). Concentrated particles are characterized for size, polydispersity, and particle concentration using Zetasizer Ultra (Malvern Panalytical) and for mRNA encapsulation efficiency using Quant-iT RiboGreen RNA Assay Kit (ThermoFisher Scientific).
(§2) The lipid mix and mRNA solution were mixed at a 1:3 ratio by volume, respectively, on the NanoAssemblr Ignite (Precision Nanosystems) at a total flow rate of 9 mL/min. Resulting formulations were then loaded into Slide-A-Lyzer G2 dialysis cassettes (10 k MWCO) and dialyzed in 200 times sample volume of 1×PBS for 2 hrs at room temperature. The PBS was refreshed, and the formulations were further dialyzed for at least 14 hrs at 4° C. with gentle stirring. The dialyzed formulations were then collected and concentrated by centrifugation at 3000×g using Amicon Ultra centrifugation filters (100 k MWCO). The concentrated formulations were characterized for size, polydispersity, and particle concentration using Zetasizer Ultra (Malvern Panalytical) and for mRNA encapsulation efficiency using Quant-iT RiboGreen RNA Assay Kit (ThermoFisher Scientific).
(§3) For each LNP composition, the lipid mix and mRNA solution were mixed at a 1:3 ratio by volume, respectively, on a NanoAssemblr Ignite (Precision Nanosystems) at a total flow rate of 9 mL/min. The resulting compositions were then loaded into Slide-A-Lyzer G2 dialysis cassettes (10 k MWCO) and dialyzed in 200 times sample volume of 1×PBS for 2 hours at room temperature with gentle stirring. The PBS was refreshed, and the compositions were further dialyzed for at least 14 hours at 4° C. with gentle stirring. The dialyzed compositions were then collected and concentrated by centrifugation at 3000×g using Amicon Ultra centrifugation filters (100 k MWCO). The concentrated particles were characterized for size, polydispersity, and particle concentration using Zetasizer Ultra (Malvern Panalytical) and for mRNA encapsulation efficiency using Quant-iT RiboGreen RNA Assay Kit (ThermoFisher Scientific).

A further series deals with Balb/c mice. Kind of series: EPO levels in plasma by EPO MSD kit after IV injection of EPO mRNA LNP. The format is in vivo. As to the method: 8-9 week old female Balb/c mice are utilized for bioluminescence-based ionizable lipid screening efforts. Mice are obtained from Jackson Laboratories (JAX Stock: 000651) and allowed to acclimate for one week prior to manipulations. Animals are placed under a heat lamp for a few minutes before introducing them to a restraining chamber. The tail is wiped with alcohol pads (Fisher Scientific) and 100 μL of a lipid nanoparticle composition descrbed above containing 10 ug total mRNA (5 ug Fluc+5 ug EPO) is injected intravenously using a 29 G insulin syringe (Covidien). Any resulting bleeding is stemmed using a sterile gauze pad (Fisher Scientific) and animals are placed back into their home cage. 4-6 hours post-dose, animals are injected with 200 μL of 15 mg/mL D-Luciferin (GoldBio) and placed in an isoflurane induction chamber set to deliver 2.5% isoflurane delivered at an oxygen flow rate of 1-2 liters per min. After 5 minutes of isoflurane exposure, mice are placed in set nose cones inside the IVIS Lumina LT imager (PerkinElmer). LivingImage software is utilized for imaging. Whole body bio-luminescence is captured at auto-exposure after which animals are removed from the IVIS and placed into a CO2 chamber for euthanasia. Cardiac puncture is performed on each animal after placing it in dorsal recumbency, and blood collection is performed using a 25 G insulin syringe (BD). Blood is collected in Lithium-Heparin coated tubes (Fisher Scientific) and immediately placed on ice. Once all blood samples are collected, tubes are spun at 2000 G for 10 minutes using a tabletop centrifuge and plasma is aliquoted into individual Eppendorf tubes (Fisher Scientific) and stored at −80 C for subsequent EPO quantification. EPO levels in plasma are determined using EPO MSD kit (Meso Scale Diagnostics).
8-9 week old female Balb/c mice were utilized for bioluminescence-based ionizable lipid screening efforts. Mice were obtained from Jackson Laboratories (JAX Stock: 000651) and allowed to acclimate for one week prior to manipulations. Animals were placed under a heat lamp for a few minutes before introducing them to a restraining chamber. The tail was wiped with alcohol pads (Fisher Scientific) and, for each LNP composition descrbed above, 100 μL of a lipid nanoparticle composition descrbed above containing 10 μg total mRNA (5 μg Fluc+5 μg EPO, 5 μg Fluc+5 μg Cre, or 5 μg EGFP) was injected intravenously using a 29 G insulin syringe (Covidien).
4-6 hours post-dose, animals were injected with 200 μL of 15 mg/mL D-Luciferin (GoldBio), and placed in set nose cones inside the IVIS Lumina LT imager (PerkinElmer). LivingImage software was utilized for imaging. Whole body bio-luminescence was captured at auto-exposure after which animals are removed from the IVIS and placed into a CO2 chamber for euthanasia. Cardiac puncture was performed on each animal after placing it in dorsal recumbency, and blood collection was performed using a 25 G insulin syringe (BD). Once all blood samples were collected, tubes are spun at 2000 G for 10 minutes using a tabletop centrifuge and plasma was aliquoted into individual Eppendorf tubes (Fisher Scientific) and stored at −80° C. for subsequent EPO quantification. EPO levels in plasma were determined using EPO MSD kit (Meso Scale Diagnostics).

A short description of series [2]: mRNA encapsulation efficiency, Quant-iT RiboGreen RNA Assay. The format is physicochemical.
From the text: as §1, §2, §3

Assay in series [3]: as above
The format is physicochemical. Conditions: LNP ionizable lipid:DSPC:Plant Chol.:DMPE-PEG2k 50:10:38.5:1.5.

[4] abbreviates: Example 5 LNP lipid:DOPE:Plant Cholesterol:DMPE-PEG2k 35:16:46.5:2.5, FLUC/EPO 1:1 mRNA, N:P 6:1.
Setting [5] is: LNP ionizable lipid:DOPE:Plant Chol.:DMPE-PEG2k 35:16:46.5:2.5 (Table 1).
Setting [6] is: LNP ionizable lipid:DSPC:Plant Chol.:DMPE-PEG2k 50:10:38.5:1.5.
The mark [7] stands for this setting: Example 5 LNP (DOPE 35:16:46.5:2.5), 5 μg FLUC + 5 μg EPO.

`CCCCCCCCCCCOC(=O)CCCCCN(CCCCCCCC(=O)OC(CCCCCCCC)CCCCCCCC)CCOC(=O)OCCN(CCCCCCCC(=O)OC(CCCCCCCC)CCCCCCCC)CCCCCC(=O)OCCCCCCCCCCC` [Compound 2218, 1-octylnonyl 8-[2-[2-[[8-(1-octylnonoxy)-8-oxo-octyl]-(6-oxo-6-undecoxy-hexyl)amino]ethoxycarbonyloxy]ethyl-(6-oxo-6-undecoxy-hexyl)amino]octanoate]: the PDI in series [1] (setting [4]) was 0.09; in series [1] (setting [5]), 0.17 and 0.09; in series [1] (setting [6]), 0.05. For the same molecule, the “Size (nm)” value in series [1] (setting [4]) was 70.0 nm; in series [1] (setting [5]) it was 71.28 nm and 70.00 nm; in series [1] (setting [6]), 96.55 nm. Further, the hEPO in the series on Balb/c mice (setting [7]) is 9.6E+01; in the series with Balb/c mice (LNP lipid:DSPC:Plant Chol.:DMPE-PEG2k 50:10:38.5:1.5, 5 ug Fluc+5 ug EPO mRNA), 8.40E+01. In addition, the “% EE” value in series [2] (setting [4]) was 91.7%; in series [2] (setting [5]), 94.4% and 91.7%; in series [3] it was 86.5%.
`CCCCCCCCCCCOC(=O)CCCCCN(CCCCCCCC(=O)OC(CCCCCCCC)CCCCCCCC)CCNC(=O)NCCN(CCCCCCCC(=O)OC(CCCCCCCC)CCCCCCCC)CCCCCC(=O)OCCCCCCCCCCC` [Compound 2246, 1-octylnonyl8-[2-[2-[[8-(1-octylnonoxy)-8-oxo-octyl]-(6-oxo-6-undecoxy-hexyl)amino]ethylcarbamoylamino]ethyl-(6-oxo-6-undecoxy-hexyl)amino]octanoate]: in series [1] (setting [4]), the PDI was found to be 0.05 and the “Size (nm)” value is reported as 62.7 nm. Further, in the series with Balb/c mice (setting [7]), the hEPO was determined as 3.6E+06. In addition, the “% EE” value in series [2] (setting [4]) was 94.9%.
As for `CCCCCCCCCC(=O)OCCCCCCCN(CCCCCCCC(=O)OC(CCCCCCCC)CCCCCCCC)CCNC(=O)CCC(=O)NCCN(CCCCCCCOC(=O)CCCCCCCCC)CCCCCCCC(=O)OC(CCCCCCCC)CCCCCCCC` [Compound 2272, 7-[2-[[4-[2-[7-decanoyloxyheptyl-[8-(1-octylnonoxy)-8-oxo-octyl]amino]ethylamino]-4-oxo-butanoyl]amino]ethyl-[8-(1-octylnonoxy)-8-oxo-octyl]amino]heptyl decanoate], in series [1] (setting [4]), the PDI is recorded as 0.07 and the “Size (nm)” value turned out to be 68.7 nm. Besides, the hEPO in the series on Balb/c mice (setting [7]) is recorded as 1.8E+06. In series [2] (setting [4]), the “% EE” value was 92.6%.
For `CCCCCCCCCCCOC(=O)CCCCCN(CCCCCCCC(=O)OC(CCCCCCCC)CCCCCCCC)CCCNC(=O)CN(CC(=O)NCCCN(CCCCCCCC(=O)OC(CCCCCCCC)CCCCCCCC)CCCCCC(=O)OCCCCCCCCCCC)C(=O)CCN1CCCC1` [Compound 2353, 1-octylnonyl8-[3-[[2-[[2-[3-[[8-(1-octylnonoxy)-8-oxo-octyl]-(6-oxo-6-undecoxy-hexyl)amino]propylamino]-2-oxo-ethyl]-(3-pyrrolidin-1-ylpropanoyl)amino]acetyl]amino]propyl-(6-oxo-6-undecoxy-hexyl)amino]octanoate], in series [1] (setting [4]), the PDI is listed as 0.14 and the “Size (nm)” value turned out to be 85.2 nm. Besides, in the series with Balb/c mice (setting [7]), the hEPO came to 9.7E+03. Besides, the “% EE” value in series [2] (setting [4]) was determined as 97.0%.
For `CCCCCCCCCCCC(=O)OCCCCCN(CCCCCCCC(=O)OC(CCCCCCCC)CCCCCCCC)CCNC(=O)CCC(=O)NCCN(CCCCCCCC(=O)OC(CCCCCCCC)CCCCCCCC)CCCCCOC(=O)CCCCCCCCCCC` [Compound 2354, 5-[2-[[4-[2-[5-dodecanoyloxypentyl-[8-(1-octylnonoxy)-8-oxo-octyl]amino]ethylamino]-4-oxo-butanoyl]amino]ethyl-[8-(1-octylnonoxy)-8-oxo-octyl]amino] pentyl dodecanoate], in that order: 0.10, 69.2 nm, 1.4E+06 and 94.6%.
For `CCCCCCCCCCC(CC)OC(=O)CCCCCN(CCCCCCCC(=O)OC(CCCCCCCC)CCCCCCCC)CCNC(=O)CCC(=O)NCCN(CCCCCCCC(=O)OC(CCCCCCCC)CCCCCCCC)CCCCCC(=O)OC(CC)CCCCCCCCCC` (centres unmarked) [Compound 2356, 1-octylnonyl 8-[[6-(1-ethylundecoxy)-6-oxo-hexyl]-[2-[[4-[2-[[6-(1-ethylundecoxy)-6-oxo-hexyl]-[8-(1-octylnonoxy)-8-oxo-octyl]amino]ethylamino]-4-oxo-butanoyl]amino]ethyl]amino]octanoate], in series [1] (setting [4]), the PDI was 0.10 and the “Size (nm)” value worked out at 74.2 nm. The hEPO in the series on Balb/c mice (setting [7]) came to 1.3E+08. Besides, in series [2] (setting [4]), the “% EE” value is 95.0%.
As for `CCCCCCCCCCCOC(=O)CCCCCN(CCCCCCCC(=O)OCCCC(CCCCC)CCCCC)CCN1CCN(CCN(CCCCCCCC(=O)OCCCC(CCCCC)CCCCC)CCCCCC(=O)OCCCCCCCCCCC)CC1` [Compound 2397, 4-pentylnonyl 8-[2-[4-[2-[[8-oxo-8-(4-pentylnonoxy)octyl]-(6-oxo-6-undecoxy-hexyl)amino]ethyl]piperazin-1-yl]ethyl-(6-oxo-6-undecoxy-hexyl)amino]octanoate], in series [1] (setting [4]), the PDI was determined as 0.09 and the “Size (nm)” value stood at 114.0 nm. In addition, in the series on Balb/c mice (setting [7]), the hEPO stood at 1.5E+06. For the same molecule, in series [2] (setting [4]), the “% EE” value was found to be 94.0%.
